Several values for one entry are separate records, joined by “and”; a condition that tells them apart may be missing. Identical values can stand only once.
Experiments:
Assay type in all cases: physicochemical
[1] = Comparative grinding studies (jet micronisation): specific surface area (BET) of batches; details: for BET: after grinding, feed pressure, grinding pressure and feed flow differ per batch (batches 1-11, see line of table)
Method: In addition, comparative grinding studies, in particular by jet micronisation, were performed so as to obtain powders of the stable and metastable forms having the same specific surface area.
Table II below presents a comparison of the specific surface areas of different batches of the compound of the formula I in which n represents 1 and R in position 7 represents methoxy, obtained by carrying out different grinding conditions.

[2] = Specific surface area (BET) of the crystalline forms; details: powder of the crystalline form; paired with the apparent density of the same line
From the text: (§1) The dissolution kinetics promote the xenobiotic bioavailability of this type of active principle. It is also known that the dissolution kinetics are accelerated by increasing the specific surface area. […] Table I below gives the respective values of the apparent density and the specific surface area (BET surface area) for the various crystalline forms.

[3] = Apparent density of the crystalline forms; details: for Apparent density: powder of the crystalline form, paired with the specific surface area of the same line
From the text: as §1

| BET ([1]; feed 2.0 bar, grinding 1.0 bar, 4.5 kg/h) [m^2/g] | BET ([1]; feed 2.2 bar, grinding 1.2 bar, 5.0 kg/h) [m^2/g] | BET ([1]; feed 2.5 bar, grinding 1.5 bar, 1.5 kg/h) [m^2/g] | BET ([1]; feed 2.5 bar, grinding 1.5 bar, 2.4 kg/h) [m^2/g] | BET ([1]; feed 2.5 bar, grinding 1.5 bar, 6.5 kg/h) [m^2/g] | Specific surface area (BET) after grinding, metastable versus stable form ([1]; jet micronisation, similar operating conditions (feed pressure and grinding pressure)) | Specific surface area or BET [2] | Apparent density of metastable form compared with thermodynamically stable form ([3]; for the same specific surface area value) | Apparent density [3] | Structure (SMILES) | Suitability for grinding or micronisation ([1]; metastable versus stable form) |
| --- | --- | --- | --- | --- | --- | --- | --- | --- | --- | --- |
| 6.2 | 7.2 | 10.2 | 9.1 | 9.2 | greater specific surface area (BET) | 3.1 m^2/g and 2.8 m^2/g | greater apparent density | 0.30 | COc1ccc2c(c1)C(/C=C/C(C)=C/C(=O)O)=CC(C)(C)CO2 [metastable, 2E,4E-(methoxy-7-dimethyl-3-dihydro-2,3-benzoxepin-1-yl-5)-5-methyl-3-pentadien-2,4-oic Acid] | more suitable for grinding or micronisation |
|  |  |  |  |  |  |  |  | 0.18 and 0.29 and 0.16 | COc1ccc2c(c1)C(/C=C/C(C)=C/C(=O)O)=CC(C)(C)CO2 [stable, 2E,4E-(methoxy-7-dimethyl-3,3-dihydro-2,3-benzoxepin-1-yl-5)-5-methyl-3-pentadien-2,4-oic acid] |  |

Reference: patent US7470719B2, “Metastable benzoxepne derivatives which can be used in the treatment of dyslipidaemia a therosclerosis and diabetes, pharmaceutical compositions comprising them and processes for the preparation thereof” (Merck Patent GmbH, priority 2002, dated 2008)
